Results published in publication PMC7179198, “Chiral Pyridine-3,5-bis- (L-phenylalaninyl-L-leucinyl) Schiff Base Peptides as Potential Anticancer Agents: Design, Synthesis, and Molecular Docking Studies Targeting Lactate Dehydrogenase-A” (Molecules, 2020).

Legend:
[1] = system: p53 ubiquitination; test: In vitro p53 ubiquitination inhibition; type: biochemical; settings: for IC50: read-out: in vitro IC50, suppression of p53 ubiquitination
Source text: (§1) Several cancer prevention drugs depend mainly on the ubiquitination activities against p53 as a suppressor protein. When E3 ubiquitin protein ligase HDM2 binds to p53, the resulting mechanism is the inhibition of its ability as a transcription activator. Accordingly, the regulative mechanism is acting negatively. Therefore, blocking the p53 binding site on HDM2 provides for a better possible antitumorigenic molecule. Currently, murine double minute 2 (MDM2) is considered as the regulator of choice when it comes to investigatingp53 inhibition.
(§2) Different prepared derivatives 4–6 were evaluated for their inhibitory potential against p53 ubiquitination according to the previously reported procedure.

[2] = system: MCF-7 xenografts; test: In vivo human breast cancer xenograft; parameters: species or system nude mice; settings: MCF-7 xenograft, eight days of treatment
Source text: In this section, we developed a breast cancer animal xenograft model for the evaluation of thein vivo anticancer potential of our newly prepared compounds. […] After wards, the noticeable effects were more or less constant up to 14 days of treatment. […] Our results are in good agreement with those previously published on the in vivo anticancer potential of Schiff bases owing to apoptosis induction.
The breast cancer xenograft model protocol was approved by the Institutional Animal Use and Care Committee of the University of Alabama at Birmingham (50-01-05-08B). Female athymic pathogen-free nude mice (nu/nu, 4–6 weeks) were used. Firstly, MCF-7 xenografts were initiated by implanting pellets slowly releasing estrogen for two months (1.7mg 17β-estradiol/pellet) subcutaneously in the female nude mice. After 24 h, confluent MCF-7 cells were harvested, washed two times with serum-free medium, re-suspended, and injected subcutaneously (s.c.) (5 × 10^6 cells, total volume 0.2 mL) into the left inguinal area of the mice. Caliper measurement was used to measure tumor growth in two perpendicular diameters of the implant after 48 h, and its volume was determined. Mice grafted with MCF-7 were divided into different groups (7–10 mice/group). Untreated mice received the solvent only. Treated groups received different prepared derivatives as previously described.

[3] = system: p53 ubiquitination; test: In vivo p53 ubiquitination inhibition; settings: for IC50: read-out: in vivo IC50, suppression of p53 ubiquitination
Source text: as §1, §2

[4] = system: non-tumorigenic MCF-10A cells; test: Cytotoxicity against normal non-tumorigenic MCF-10A cells (MTT); type: cell-based; settings: MCF-10A vs MCF-7
Source text: (§3) Following the synthesis of the new bis-dipeptide derivatives, we evaluated the anticancer potentials of these derivatives in vitro against breast cancer cells (MCF-7) as well as normal non tumorigenic MCF-10A cells. The obtained results were expressed as IC50 values in µM and were also compared for both cell lines with positive reference controls; that is cisplatin and milaplatin. Generally, it can be seen that our newly synthesized bis-dipeptides have potential anticancer activities against MCF-7 cells.
The fact that normal cells are usually less affected by possible anticancer candidates may be attributed to the fact that, upon cancer initiation and development, cancer cells overcome normal growth regulation pathways present in normal cells, and thusthey tend to be affected by other different regulatory growth pathways, which are not evident in the case of normal cells.
(§4) The results were expressed as IC50. Experiments were repeated at least in triplicate, to obtain good reproducibility between replicate wells with standard errors below 10%. Furthermore, the cytotoxic effects of the prepared derivatives were evaluated against normal nonmalignant cells, non-tumorigenic MCF-10A, in order to find out if the synthesized derivatives have toxicity against normal cells. Additionally, the results were compared with reference compounds (cisplatin and milaplatin) as positive controls.

[5] = system: breast cancer cells (MCF-7); test: In vitro cytotoxic activity against MCF-7 cancer cells (MTT); type: cell-based, human; settings: for IC50: MCF-7, MTT
Source text: as §3
Human breast cancer (MCF-7) cells, obtained from Sigma-Aldrich Chemie GmbH, Taufkirchen, Germany, were propagated in RPMI-1640 supplemented with 10% heat inactivated FBS, 2 mM L-glutamine, and 1% standard antibiotic solution. Cells were incubated in a 5% CO2humidified incubator at 37 °C and passaged bi-weekly. The in vitro anti-proliferative activity of the newly synthesized derivatives was assayed using the standard MTT technique.
as §4

[6] = target: T1, recombinant human LDHA protein (Homo sapiens, UniProt P00338); test: LDHA inhibition assay (colorimetric NADH kit); type: biochemical; settings: recombinant human LDHA
T1 construct: purchased Abcam ab93699
Method: The newly synthesized compounds 4–6 were evaluated for their ability to inhibit LDHA in comparison with galloflavin as a known isoform nonselective LDHA inhibitor [44, 45]. The choice of galloflavin as a reference was based on the fact that it is potent anticancer agent and commercially available.
Lactate dehydrogenase assay kit (Abcam, ab102526) and recombinant human LDHA protein (Abcam, ab93699) were used to assess the inhibitory effect of the tested compounds. First, we generated an NADH standard curve for colorimetric detection by measuring the OD (450 nm) at different molar amounts of NADH. The linear regression equation of the curve was derivatized in Graphpad Prism. Tested compounds were dissolved in DMSO and their inhibitory activity was assessed at 140 and 300 μM strength. Galloflavin (Sigma, SML0776) at the same molar concentration was used as a known LDH inhibitor. The master reaction mix composed of LDH assay buffer and 10 ng human LDHA […] per reaction was prepared. Tested compounds were added and the final reaction volume was adjusted to 50 μL. Absorbance at 450 nm was taken after 2–3 min (T-initial) and continued every minute for 118 min (T-final). The change in measurement over time (delta A450) was calculated as T-final minus T-initial. The amount of NADH generated by the assay between T-initial and T-final was deduced by comparing the A450 of each sample to the standard NADH standard curve. LDHA activity was calculated in milliunits per mL as the amount of NADH generated by the assay / (reaction time in minutes (118) x reaction volume in mL ([…]).

With `CC(=NNC(=O)C(CC(C)C)NC(=O)C(Cc1ccccc1)NC(=O)c1cncc(C(=O)NC(Cc2ccccc2)C(=O)NC(CC(C)C)C(=O)NN=C(C)c2ccccn2)c1)c1ccccn1` (centres unmarked) (hydrate or solvate) [4a, N^3,N^5-Bis{1-[(4-methyl-1-oxo-1-(2-(1-(pyridin-2-yl)ethylidene)hydrazinyl)pentan-2-yl)amino]-1-oxo-3-phenylpropan-2-yl}pyridine-3,5-dicarboxamide] the melting point was 216 to 218 °C.

Work on `CC(=NNC(=O)C(CC(C)C)NC(=O)C(Cc1ccccc1)NC(=O)c1cncc(C(=O)NC(Cc2ccccc2)C(=O)NC(CC(C)C)C(=O)NN=C(C)c2cccnc2)c1)c1cccnc1` (centres unmarked) (hydrate or solvate) [4b, N^3,N^5-Bis{1-[(4-methyl-1-oxo-1-(2-(1-(pyridin-3-yl)ethylidene)hydrazinyl)pentan-2-yl)-amino]-1-oxo-3-phenylpropan-2-yl}pyridine-3,5-dicarboxamide] yielded a melting point of 208 to 210 °C.

For `CC(=NNC(=O)C(CC(C)C)NC(=O)C(Cc1ccccc1)NC(=O)c1cncc(C(=O)NC(Cc2ccccc2)C(=O)NC(CC(C)C)C(=O)NN=C(C)c2ccncc2)c1)c1ccncc1` (centres unmarked) (hydrate or solvate) [4c, N^3,N^5-Bis{1-[(4-methyl-1-oxo-1-(2-(1-(pyridin-4-yl)ethylidene)hydrazinyl)pentan-2-yl)-amino]-1-oxo-3-phenylpropan-2-yl}pyridine-3,5-dicarboxamide], the melting point was 196 to 198 °C.

`CC(=NNC(=O)C(CC(C)C)NC(=O)C(Cc1ccccc1)NC(=O)c1cncc(C(=O)NC(Cc2ccccc2)C(=O)NC(CC(C)C)C(=O)NN=C(C)c2ccc([N+](=O)[O-])cc2)c1)c1ccc([N+](=O)[O-])cc1` (centres unmarked) (hydrate or solvate) [5e, N^3,N^5-Bis{1-[(4-methyl-1-(2-(1-(4-nitrophenyl)ethylidene)hydrazinyl)-1-oxopentan-2-yl)-amino]-1-oxo-3-phenylpropan-2-yl}pyridine-3,5-dicarboxamide] showed a melting point of 256 to 258 °C.

Work on `CC(C)CC(NC(=O)C(Cc1ccccc1)NC(=O)c1cncc(C(=O)NC(Cc2ccccc2)C(=O)NC(CC(C)C)C(=O)NN=C2CCCC2)c1)C(=O)NN=C1CCCC1` (centres unmarked) [3a, N^3,N^5-Bis{1-[(1-(2-cyclopentylidenehydrazinyl)-4-methyl-1-oxopentan-2-yl]amino)-1-oxo-3-phenylpropan-2-yl}pyridine-3,5-dicarboxamide] yielded a melting point of 232 to 234 °C.

For `CC(C)CC(NC(=O)C(Cc1ccccc1)NC(=O)c1cncc(C(=O)NC(Cc2ccccc2)C(=O)NC(CC(C)C)C(=O)NN=C2CCCCC2)c1)C(=O)NN=C1CCCCC1` (centres unmarked) [3b, N^3,N^5-Bis{1-[(1-(2-cyclohexylidenehydrazinyl)-4-methyl-1-oxopentan-2-yl)amino]-1-oxo-3-phenylpropan-2-yl}pyridine-3,5-dicarboxamide], the melting point was 198 to 200 °C.

`CC(C)CC(NC(=O)C(Cc1ccccc1)NC(=O)c1cncc(C(=O)NC(Cc2ccccc2)C(=O)NC(CC(C)C)C(=O)NN=C2CCCCCC2)c1)C(=O)NN=C1CCCCCC1` (centres unmarked) [3c, N^3,N^5-Bis{1-[(1-(2-cycloheptylidenehydrazinyl)-4-methyl-1-oxopentan-2-yl)amino]-1-oxo-3-phenylpropan-2-yl}pyridine-3,5-dicarboxamide] showed a melting point of 221 to 223 °C.

In the case of `CC(C)CC(NC(=O)C(Cc1ccccc1)NC(=O)c1cncc(C(=O)NC(Cc2ccccc2)C(=O)NC(CC(C)C)C(=O)NN=C2CCCCCCC2)c1)C(=O)NN=C1CCCCCCC1` (centres unmarked) [3d, N^3,N^5-Bis{1-[(1-(2-cyclooctylidenehydrazinyl)-4-methyl-1-oxopentan-2-yl)amino]-1-oxo-3-phenylpropan-2-yl}pyridine-3,5-dicarboxamide], the melting point is reported as 242 to 244 °C.

With `CC(=NNC(=O)C(CC(C)C)NC(=O)C(Cc1ccccc1)NC(=O)c1cncc(C(=O)NC(Cc2ccccc2)C(=O)NC(CC(C)C)C(=O)NN=C(C)c2ccccn2)c1)c1ccccn1` (centres unmarked) [4a, N^3,N^5-Bis{1-[(4-methyl-1-oxo-1-(2-(1-(pyridin-2-yl)ethylidene)hydrazinyl)pentan-2-yl)amino]-1-oxo-3-phenylpropan-2-yl}pyridine-3,5-dicarboxamide] the IC50 [1] was 21.34 ± 0.13 µM, the “fold higher inhibitory effect than positive control (diphenyl imidazole), in vitro p53 ubiquitination” value ([1]; vs diphenyl imidazole) was “about 12.2 fold” and the “decrease in tumor growth” value [2] was 81.3%. For the same molecule, the “fold higher inhibitory effect than positive control (diphenyl imidazole), in vivo p53 ubiquitination” value ([3]; in vivo, vs diphenyl imidazole) was about 15.7 fold and the IC50 [3] was 0.12 ± 0.0011 µM.

In the case of `CC(=NNC(=O)C(CC(C)C)NC(=O)C(Cc1ccccc1)NC(=O)c1cncc(C(=O)NC(Cc2ccccc2)C(=O)NC(CC(C)C)C(=O)NN=C(C)c2cccnc2)c1)c1cccnc1` (centres unmarked) [4b, N^3,N^5-Bis{1-[(4-methyl-1-oxo-1-(2-(1-(pyridin-3-yl)ethylidene)hydrazinyl)pentan-2-yl)-amino]-1-oxo-3-phenylpropan-2-yl}pyridine-3,5-dicarboxamide], the “fold higher IC50 against MCF-10A than MCF-7” value [4] is reported as “about 142.7 fold”, the IC50 ([5]; Homo sapiens, MCF7) is reported as 8.12 ± 0.14 µM and the “more active than cisplatin against MCF-7” value ([5]; MCF-7, vs cisplatin) is reported as “about 39.1%”. The “more active than milaplatin against MCF-7” value ([5]; MCF-7, vs milaplatin) was about 55.9%.

Molecule `CC(C)CC(NC(=O)C(Cc1ccccc1)NC(=O)c1cncc(C(=O)NC(Cc2ccccc2)C(=O)NC(CC(C)C)C(=O)NN=Cc2ccco2)c1)C(=O)NN=Cc1ccco1` (centres unmarked) [6a, N^3,N^5-bis{1-[(1-(2-(furan-2-ylmethylene)hydrazinyl)-4-methyl-1-oxopentan-2-yl)amino]-1-oxo-3-phenylpropan-2-yl}pyridine-3,5-dicarboxamide] has a melting point of 205 to 207 °C and an IC50 [3] of 0.31 ± 0.001 µM.

Work on `CC(C)CC(NC(=O)C(Cc1ccccc1)NC(=O)c1cncc(C(=O)NC(Cc2ccccc2)C(=O)NC(CC(C)C)C(=O)NN=Cc2cccs2)c1)C(=O)NN=Cc1cccs1` (centres unmarked) [6b, N^3,N^5-bis{1-[(4-methyl-1-oxo-1-(2-(thiophen-2-ylmethylene)hydrazinyl)pentan-2-yl)amino]-1-oxo-3-phenylpropan-2-yl}pyridine-3,5-dicarboxamide] yielded a melting point of 218 to 220 °C.

Molecule `N.N.[Cl][Pt][Cl]` [cisplatin, reference compound] has an IC50 [5] of 13.34 ± 0.11 µM.

`O=c1oc2c(cc1O)oc(=O)c1cc(O)c(O)c(O)c12` [galloflavin, reference compound] showed an IC50 [6] of 161.1 ± 0.32 µM.

With “N^3,N^5-Bis{1-[(1-(2-(1-(4-methoxyphenyl)ethylidene)hydrazinyl)-4-methyl-1-oxopentan-2-yl)-amino]-1-oxo-3-phenylpropan-2-yl}pyridine-3,5-dicarboxamide [5a]” the IC50 [1] was 44.33 ± 0.34 µM, the “fold higher IC50 against MCF-10A than MCF-7” value [4] was about 145.9 fold and the IC50 [5] was 17.6 ± 0.27 µM.

milaplatin [reference compound] gave an IC50 [5] of 18.43 ± 0.13 µM.
